In patent US20250171495A1, “MUTLI-TARGETED SERINE PROTEASE INHIBITORS FOR TREATMENT OF CANCER AND VIRAL INFECTION” (Washington University, priority 2023, published 2025):
Read-outs that look alike come from different tables or passages of the source.

How the values were obtained:
Type in all cases: biochemical
Thrombin = Thrombin (Homo sapiens, UniProt P00734); test: Fluorogenic assay, thrombin
HGFA = molecular target: T1, HGFA (Homo sapiens, UniProt Q04756); test: Fluorogenic kinetic enzyme inhibitor assay, HGFA
T1 construct: purchased R&D Systems 1514-SE-010
T1 sequence (Q04756 408-655 limits assumed): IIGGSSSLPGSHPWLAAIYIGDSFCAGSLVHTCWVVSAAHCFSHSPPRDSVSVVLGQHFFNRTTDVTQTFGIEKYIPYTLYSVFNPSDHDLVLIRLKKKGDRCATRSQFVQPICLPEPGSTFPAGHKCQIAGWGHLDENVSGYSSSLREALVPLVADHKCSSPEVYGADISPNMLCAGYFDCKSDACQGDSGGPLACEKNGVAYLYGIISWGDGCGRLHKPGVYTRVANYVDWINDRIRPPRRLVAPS
T1 sequence (Q04756 373-407 partner limits assumed): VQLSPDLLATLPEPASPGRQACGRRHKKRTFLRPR

TMPRSS2 = TMPRSS2 (Homo sapiens, UniProt O15393); test: Fluorogenic kinetic enzyme inhibitor assay, TMPRSS2; design: purchased Cusabio Technology CSB-YP023924HU; settings: read-out: TMPRSS2 IC50
TMPRSS2, sequence (O15393 106-492 limits assumed): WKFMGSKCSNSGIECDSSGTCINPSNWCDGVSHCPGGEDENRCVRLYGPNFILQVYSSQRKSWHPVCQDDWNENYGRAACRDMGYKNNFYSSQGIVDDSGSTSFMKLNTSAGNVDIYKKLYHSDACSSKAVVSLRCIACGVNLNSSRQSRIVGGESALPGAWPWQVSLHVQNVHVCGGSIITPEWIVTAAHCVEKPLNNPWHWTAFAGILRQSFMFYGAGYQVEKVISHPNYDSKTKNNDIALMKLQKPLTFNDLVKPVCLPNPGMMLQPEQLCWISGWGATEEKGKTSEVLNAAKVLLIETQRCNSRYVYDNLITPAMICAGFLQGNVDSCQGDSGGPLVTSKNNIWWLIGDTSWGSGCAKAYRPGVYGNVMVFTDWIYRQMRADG

matriptase = molecular target: T2, matriptase (Homo sapiens, UniProt Q9Y5Y6); test: Fluorogenic kinetic enzyme inhibitor assay, matriptase
T2 construct: purchased R&D Systems 3946-SEB-010
T2 sequence (Q9Y5Y6 615-855 limits assumed): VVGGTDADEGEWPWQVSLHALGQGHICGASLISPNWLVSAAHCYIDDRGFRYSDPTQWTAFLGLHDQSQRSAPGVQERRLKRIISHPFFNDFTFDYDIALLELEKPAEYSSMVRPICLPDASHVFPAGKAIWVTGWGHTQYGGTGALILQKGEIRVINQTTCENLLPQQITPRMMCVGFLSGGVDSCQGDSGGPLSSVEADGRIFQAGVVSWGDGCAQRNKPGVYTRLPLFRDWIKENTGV

hepsin = molecular target: T3, hepsin (Homo sapiens, UniProt P05981); test: Fluorogenic kinetic enzyme inhibitor assay, hepsin
T3 construct: purchased R&D Systems 4776-SE-010
T3 sequence (P05981 163-417 limits assumed): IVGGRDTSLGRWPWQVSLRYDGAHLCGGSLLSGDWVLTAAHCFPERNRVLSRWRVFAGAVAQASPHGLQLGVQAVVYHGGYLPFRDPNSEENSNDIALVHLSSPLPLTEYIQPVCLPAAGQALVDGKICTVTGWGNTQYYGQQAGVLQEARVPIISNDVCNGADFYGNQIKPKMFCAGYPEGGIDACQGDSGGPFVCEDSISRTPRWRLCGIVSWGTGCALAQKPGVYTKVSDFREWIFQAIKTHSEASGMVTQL
T3 sequence (P05981 1-162 partner limits assumed): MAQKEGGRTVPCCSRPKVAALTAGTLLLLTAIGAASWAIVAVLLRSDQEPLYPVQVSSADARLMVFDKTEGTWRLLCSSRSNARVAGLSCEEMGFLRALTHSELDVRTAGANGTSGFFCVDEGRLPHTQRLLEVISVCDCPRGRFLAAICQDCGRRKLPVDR

Factor Xa = molecular target: T4, Factor Xa (Homo sapiens, UniProt P00742); test: Fluorogenic assay, Factor Xa; settings: read-out: Factor Xa IC50
T4 construct: TMPRSS2; Matriptase; Hepsin; HGFA; Thrombin; Factor Xa
T4 sequence (P00742 235-488 limits assumed): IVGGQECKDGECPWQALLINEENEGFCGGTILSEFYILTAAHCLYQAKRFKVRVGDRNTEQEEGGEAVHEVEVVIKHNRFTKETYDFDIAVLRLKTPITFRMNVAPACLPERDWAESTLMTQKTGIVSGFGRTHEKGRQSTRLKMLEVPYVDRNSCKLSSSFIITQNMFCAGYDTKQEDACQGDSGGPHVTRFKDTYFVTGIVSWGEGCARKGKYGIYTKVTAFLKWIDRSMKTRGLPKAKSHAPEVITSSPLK
T4 sequence (P00742 41-179 partner limits assumed): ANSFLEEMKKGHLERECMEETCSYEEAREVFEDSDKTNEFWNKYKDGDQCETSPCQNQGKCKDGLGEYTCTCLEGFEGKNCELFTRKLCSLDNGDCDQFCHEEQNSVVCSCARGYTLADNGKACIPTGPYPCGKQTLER

[1] = 30 min incubation, Boc-QLR-AMC at Km, read-out: HGFA IC50
[2] = 30 min incubation, Boc-QAR-AMC at Km, read-out: Hepsin IC50
[3] = 30 min incubation, Boc-QAR-AMC at Km
[4] = 30 min incubation, Boc-QAR-AMC at Km, read-out: Matriptase IC50

| Compound | IC50 (Thrombin) | IC50 (HGFA; [1]) | IC50 (TMPRSS2) | IC50 (matriptase; read-out: Matriptase IC50) | IC50 (hepsin; [2]) | IC50 (Factor Xa) | IC50 (HGFA; read-out: HGFA IC50) | IC50 (matriptase) | IC50 (hepsin; read-out: Hepsin IC50) | IC50 (HGFA) | IC50 (hepsin) | IC50 (TMPRSS2; [3]) | IC50 (matriptase; [4]) |
| --- | --- | --- | --- | --- | --- | --- | --- | --- | --- | --- | --- | --- | --- |
| CSCC[C@@H]1NC(=O)[C@@H](NC(C)=O)CC(=O)NCCCC[C@@H](C(=O)N[C@@H](CCCNC(=N)N)C(=O)c2nc3ccccc3s2)NC1=O [VD3173, N-[(S)-1-[(1,3-benzothiazol-2-yl)carbonyl]-4-guanidinobutyl]-(3S,6S,14S)-6-acetylamino-3-[2-(methylthio)ethyl]-2,5,8-trioxo-1,4,9-triaza-14-cyclotetradecanecarboxamide] | 18500 nM | 3240 nM | 0.401 nM | 1 nM | 5.9 nM | 1390 nM | – | – | – | – | – | – | – |
| CC(=O)N[C@H]1Cc2ccc(cc2)OC/C=C\C[C@@H](C(=O)N[C@@H](CCCNC(=N)N)C(=O)c2nc3ccccc3s2)NC(=O)[C@H](CC(C)C)NC1=O [VD4010, N-[(S)-1-[(1,3-benzothiazol-2-yl)carbonyl]-4-guanidinobutyl]-(4Z,7S,10S,13S)-13-acetylamino-10-isobutyl-9,12-dioxo-2-oxa-8,11-diazabicyclo[13.2.2]nonadeca-1(17),4,15,18-tetraene-7-carboxamide] | > 20000 nM | – | 1.21 nM | – | – | 122 nM | 53 nM | 3.4 nM | 0.17 nM | – | – | – | – |
| CC(=O)N[C@H]1C/C=C\COc2ccc(cc2)C[C@@H](C(=O)N[C@@H](CCCNC(=N)N)C(=O)c2nc3ccccc3s2)NC(=O)[C@H](CC(C)C)NC1=O [VD4051, N-[(S)-1-[(1,3-benzothiazol-2-yl)carbonyl]-4-guanidinobutyl]-(4Z,7S,10S,13S)-7-acetylamino-10-isobutyl-8,11-dioxo-2-oxa-9,12-diazabicyclo[13.2.2]nonadeca-1(17),4,15,18-tetraene-13-carboxamide] | > 20000 nM | – | 14.2 nM | – | – | 8810 nM | – | 14 nM | – | > 20000 nM | 20 nM | – | – |
| CC(=O)N[C@H]1Cc2ccc(cc2)OCCCC[C@@H](C(=O)N[C@@H](CCCNC(=N)N)C(=O)c2nc3ccccc3s2)NC(=O)[C@H](CC(C)C)NC1=O [VD4072, N-[(S)-1-[(1,3-benzothiazol-2-yl)carbonyl]-4-guanidinobutyl]-(7S,10S,13S)-13-acetylamino-10-isobutyl-9,12-dioxo-2-oxa-8,11-diazabicyclo[13.2.2]nonadeca-1(17),15,18-triene-7-carboxamide] | > 20000 nM | 40 nM | – | – | 0.91 nM | 2650 nM | – | – | – | – | – | 9.79 nM | 32 nM |
| CC(=O)N[C@H]1CCCCn2cc(nn2)C[C@H](C(=O)N[C@@H](CCCNC(=N)N)C(=O)c2nc3ccccc3s2)NC(=O)[C@H](CC(C)C)NC1=O [VD4118B, N-[(S)-1-[(1,3-benzothiazol-2-yl)carbonyl]-4-guanidinobutyl]-(6S,9S,12R)-6-acetylamino-9-isobutyl-7,10-dioxo-1,8,11,15,16-pentaazabicyclo[12.2.1]heptadeca-14(17),15-diene-12-carboxamide] | > 20000 nM | 10900 nM | – | – | 137 nM | 9540 nM | – | – | – | – | – | 14.9 nM | 91.2 nM |
| CC(=O)N[C@H]1Cc2ccc(cc2)OCCCC[C@@H](C(=O)N[C@@H](CCCNC(=N)N)C(=O)c2nc3ccccc3s2)NC(=O)[C@H](Cc2c[nH]c3ccccc23)NC1=O [VD4158, N-[(S)-1-[(1,3-benzothiazol-2-yl)carbonyl]-4-guanidinobutyl]-(7S,10S,13S)-13-acetylamino-10-[(3-indolyl)methyl]-9,12-dioxo-2-oxa-8,11-diazabicyclo[13.2.2]nonadeca-1(17),15,18-triene-7-carboxamide] | > 20000 nM | 85.2 nM | – | – | – | 9530 nM | – | – | – | – | 2.84 nM | 15.8 nM | 56.8 nM |
| CC(=O)N[C@H]1Cc2ccc(cc2)OC/C=C\C[C@@H](C(=O)N[C@@H](CCCNC(=N)N)C(=O)c2nc3ccccc3s2)NC(=O)[C@@H](Cc2c[nH]c3ccccc23)NC1=O [VD5027, N-[(S)-1-[(1,3-benzothiazol-2-yl)carbonyl]-4-guanidinobutyl]-(4Z,7S,10R,13S)-13-acetylamino-10-[(3-indolyl)methyl]-9,12-dioxo-2-oxa-8,11-diazabicyclo[13.2.2]nonadeca-1(17),4,15,18-tetraene-7-carboxamide] | 19900 nM | 4.58 nM | – | – | 0.693 nM | 1360 nM | – | – | – | – | – | 0.978 nM | 5.68 nM |
| CC(=O)N[C@H]1Cc2ccc(cc2)Oc2cccc(c2)C[C@@H](C(=O)N[C@@H](CCCNC(=N)N)C(=O)c2nc3ccccc3s2)NC(=O)[C@H](CC(C)C)NC1=O [VD5064B, N-[(S)-1-[(1,3-benzothiazol-2-yl)carbonyl]-4-guanidinobutyl]-(9S,12S,15S)-15-acetylamino-12-isobutyl-11,14-dioxo-2-oxa-10,13-diazatricyclo[15.2.2.1^3,^7]docosa-1(19),3,5,7(22),17,20-hexaene-9-carboxamide] | > 20000 nM | 61.4 nM | – | 90 nM | – | 955 nM | – | – | 0.168 nM | – | – | 11 nM | – |
| CC(=O)N[C@@H](CO)C(=O)N[C@@H](CCCCN)C(=O)N[C@@H](Cc1ccccc1)C(=O)N[C@@H](CCCNC(=N)N)C(=O)c1nccs1 [ZFH6095, N-[(S)-1-[N-(S)-4-guanidino-1-[(1,3-thiazol-2-yl)carbonyl]butylcarbamoyl]-2-phenylethyl](S)-2-[(S)-2-acetylamino-3-hydroxypropionylamino]-6-aminohexanamide] | > 20000 nM | – | 7.89 nM | – | – | 1060 nM | – | 6.1 nM | 17 nM | 114 nM | – | – | – |
| CC(=O)N[C@@H](CCCCN)C(=O)N[C@@H](CCC(N)=O)C(=O)N[C@@H](Cc1ccccc1)C(=O)N[C@@H](CCCNC(=N)N)C(=O)c1nccs1 [ZFH6101, N-[(S)-1-[N-(S)-4-guanidino-1-[(1,3-thiazol-2-yl)carbonyl]butylcarbamoyl]-2-phenylethyl](S)-2-[(S)-1-acetylamino-5-aminopentylcarbonylamino] glutaramide] | > 20000 nM | – | 28.9 nM | – | – | 158 nM | 116 nM | 1.4 nM | 1.2 nM | – | – | – | – |
| CC(=O)N[C@@H](Cc1ccccc1)C(=O)N[C@@H](CC(C)C)C(=O)N[C@@H](Cc1ccccc1)C(=O)N[C@@H](CCCNC(=N)N)C(=O)c1nc2ccccc2s1 [ZFH7063, N-[(S)-1-[N-(S)-1-[(1,3-benzothiazol-2-yl)carbonyl]-4-guanidinobutylcarbamoyl]-2-phenylethyl](S)-2-[(S)-2-acetylamino-3-phenylpropionylamino]-4-methylvaleramide] | > 20000 nM | – | 3 nM | – | – | 26 nM | – | 7.2 nM | – | 228 nM | 2.9 nM | – | – |
| CC(=O)N[C@@H](Cc1c[nH]c2ccccc12)C(=O)N[C@@H](CC(C)C)C(=O)N[C@@H](Cc1ccccc1)C(=O)N[C@@H](CCCNC(=N)N)C(=O)c1nc2ccccc2s1 [ZFH7064, N-[(S)-1-[N-(S)-1-[(1,3-benzothiazol-2-yl)carbonyl]-4-guanidinobutylcarbamoyl]-2-phenylethyl](S)-2-[(S)-2-acetylamino-3-(3-indolyl)propionylamino]-4-methylvaleramide] | > 20000 nM | – | 0.092 nM | – | – | 2 nM | – | 12 nM | – | 266 nM | 0.69 nM | – | – |
